Data published in US20050256131A1, “Pharmaceutical active substance combination and the use thereof” (priority 2002, published 2005).
“Also recorded” adds a separate entry of the source.

Key:
Parkinson's disease = assay: clinical studies / series of tests on parkinsonian patients; assay type: in vivo, human; conditions: for influence of additional intake on the effect of nefazodone or trazodone: taken in addition to nefazodone or trazodone; for antidepressant effect in parkinsonian patients: especially those treated in parallel with dopamine-containing medicaments; for necessary dose of dopamine to be taken: parkinsonian patients taking dopamine as supplement; for depot effect / release of the additionally taken dopamine in the patient's body: patients taking dopamine at the same time
Procedure: The tablets normally comprise the active substance in an amount of 100 mg or 200 mg. […] For example, if a total dose of 500 mg a day is intended, it is possible to take 200 mg in the morning, 200 mg at midday and 100 mg in the evening.
The medicament with the active substance trazodone was administered to the patients in the evening. […] However, to date, for the aforementioned reasons, the patients have been given the dopamine to be administered in the evening in conjunction with a depot composition.

[1] = cited from earlier work; for side effects affecting the nervous system / psychomotor performance: manufacturer's information for use or statements in the literature

Compound | therapeutic effect in the treatment of the symptoms of Parkinson's disease (Parkinson's disease; parkinsonian patients) | influence of additional intake on the effect of nefazodone or trazodone (Parkinson's disease; parkinsonian patients) | side effects affecting the nervous system / psychomotor performance [1] | antidepressant effect in parkinsonian patients (Parkinson's disease) | necessary dose of dopamine to be taken (Parkinson's disease) | depot effect / release of the additionally taken dopamine in the patient's body (Parkinson's disease) | also measured
O=C(O)COCCN1CCN(C(c2ccccc2)c2ccc(Cl)cc2)CC1 (centres unmarked) [cetirizine] | particularly good effect | enhances the effect of the nefazodone or trazodone | reduction in psychomotor performance |  |  |  | central sedative effect ([1]; compared with other antihistamines, statements in the literature): only a slight central sedative effect
O=c1n(CCCN2CCN(c3cccc(Cl)c3)CC2)nc2ccccn12 [trazodone, 2-[3-[4-(3-chlorophenyl)-1-piperazinyl]propyl]-1,2,4-triazolo[4,3-a]pyridin-3(2H)-one] | exceptionally good therapeutic effect |  |  | particularly evident | reduction in the necessary dose of dopamine | causes a depot effect | tiredness / sleep-promoting effect after intake (Parkinson's disease; parkinsonian patients): causes a certain tiredness; also recorded: sleep-promoting effect
CCc1nn(CCCN2CCN(c3cccc(Cl)c3)CC2)c(=O)n1CCOc1ccccc1 [nefazodone, 2-[3-[4-(3-chlorophenyl)-1-piperazinyl]propyl]-5-ethyl-4-(2-phenoxyethyl)-2H-1,2,4-triazol-3(4H)-one] | exceptionally good therapeutic effect |  | impairments of the coordination of movements (ataxia) and slowing of movements | particularly evident | reduction in the necessary dose of dopamine | released more slowly | tolerability (Parkinson's disease; human, in vivo): generally well tolerated; daily dopamine dose as fraction of dose before treatment (Parkinson's disease; one patient with disease in advanced stage): about one third; dopamine dose necessary on additional intake, relative to dose previously necessary on treatment with dopamine alone (Parkinson's disease; parkinsonian patients regularly taking L-dopamine, simultaneous intake of nefazodone): one half or even one third; side effect of dopamine: uncontrolled motor activity in the patient (Parkinson's disease; patients on Parkinson's medicaments comprising dopamine): positively influenced
CC(=O)Oc1ccccc1C(=O)O [acetylsalicylic acid] |  | can also assist the mentioned positive effects of nefazodone |  |  |  |  | 
Cn1c(=O)c2c(ncn2C)n(C)c1=O [caffeine] |  | assists the mentioned positive effect of nefazodone |  |  |  |  | 
